Laboratory results taken from US20220323406A1, “METHODS AND COMPOSITIONS FOR DIFFERENTIATING STEM CELLS” (Massachusetts Institute of Technology, priority 2019, published 2022).
Where a name gives a salt, the structure may show the parent alone.

Columns and labels:
ENR+CD organoids = test: Primary screen: ATP (CellTiter-Glo 3D, CTG) cell number/viability, 2.5-D 384-well ENR+CD organoids; conditions: primary screen; for Z.CTG: standard z score;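 on all read-outs here: compounds given at plating and again on day 3 over a 6-day differentiation from ENR+CV stem-cell-enriched precursors, ATP measured on day 6, plate median as control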
[1] = tested on: ENR+CD organoids (ISC to Paneth cell differentiation); test: Primary screen: basal (non-stimulated) lysozyme secretion LYZ.NS, 2.5-D 384-well ENR+CD organoid differentiation; format: cell-based, mouse
Text: (§1) High-throughput screening.

[2] = tested on: ENR+CD organoids (ISC to Paneth cell differentiation); test: Primary screen: CCh-stimulated lysozyme secretion LYZ.S, 2.5-D 384-well ENR+CD organoid differentiation; format: cell-based, mouse; conditions: primary screen
Text: as §1

[3] = dose 0.08 uM, FC relative to plate median
[4] = dose 0.40 uM, FC relative to plate median
[5] = dose 2.00 uM, FC relative to plate median
[6] = dose 10.00 uM, FC relative to plate median
[7] = primary screen, dose 0.08 uM, FC relative to plate median
[8] = primary screen, dose 0.08 uM, standard z score
[9] = primary screen, dose 0.40 uM, FC relative to plate median
[10] = primary screen, dose 0.40 uM, standard z score
[11] = primary screen, dose 2.00 uM, FC relative to plate median
[12] = primary screen, dose 2.00 uM, standard z score
[13] = primary screen, dose 10.00 uM, FC relative to plate median
[14] = primary screen, dose 10.00 uM, standard z score
[15] = dose 0.08 uM, FC vs plate median
[16] = dose 0.40 uM, FC vs plate median
[17] = dose 2.00 uM, FC vs plate median
[18] = dose 10.00 uM, FC vs plate median

SMILES | Dose.FC.CTG (ENR+CD organoids; dose 0.08 uM) | Dose.FC.CTG (ENR+CD organoids; dose 0.40 uM) | Dose.FC.CTG (ENR+CD organoids; dose 2.00 uM) | Dose.FC.CTG (ENR+CD organoids; dose 10.00 uM) | Dose.FC.LYZ.NS ([1]; primary screen, dose 0.08 uM) | Dose.FC.LYZ.NS ([1]; primary screen, dose 0.40 uM) | Dose.FC.LYZ.NS ([1]; primary screen, dose 2.00 uM) | Dose.FC.LYZ.NS ([1]; primary screen, dose 10.00 uM) | Dose.FC.LYZ.S ([2]; dose 0.08 uM) | Dose.FC.LYZ.S ([2]; dose 0.40 uM) | Dose.FC.LYZ.S ([2]; dose 2.00 uM) | Dose.FC.LYZ.S ([2]; dose 10.00 uM) | Z.LYZ.NS [1, 8] | Z.LYZ.NS [1, 10] | Z.LYZ.NS [1, 12] | Z.LYZ.NS [1, 14] | Z.LYZ.NS (standard z score) ([1]; primary screen, dose 0.08 uM) | Z.LYZ.NS (standard z score) ([1]; primary screen, dose 0.40 uM) | Z.LYZ.NS (standard z score) ([1]; primary screen, dose 2.00 uM) | Z.LYZ.NS (standard z score) ([1]; primary screen, dose 10.00 uM) | other results
COc1ccc2nc([S@@+]([O-])Cc3ncc(C)c(OC)c3C)[nH]c2c1 [Esomeprazole Sodium] | 0.288 log2 fold change | 0.199 log2 fold change | 0.386 log2 fold change | 0.271 log2 fold change | 0.086 log2 fold change | 0.233 log2 fold change | 0.034 log2 fold change | −0.016 log2 fold change | 0.146 log2 fold change | 0.174 log2 fold change | 0.043 log2 fold change | 0.021 log2 fold change |  |  |  |  |  |  |  |  | Z.LYZ.NS ([1]; primary screen, standard z score, dose 0.08 uM): 0.747; Z.LYZ.NS ([1]; primary screen, standard z score, dose 0.40 uM): 2.030; Z.LYZ.NS ([1]; primary screen, standard z score, dose 2.00 uM): 0.300; Z.LYZ.NS ([1]; primary screen, standard z score, dose 10.00 uM): −0.139
O=C1CC(=O)c2c(Cl)c(Cl)c(Cl)c(Cl)c21 [TCID] |  |  |  |  |  |  |  |  |  |  |  |  | 0.431 | −0.155 | 0.578 | −0.159 |  |  |  |  | Dose.FC.CTG (ENR+CD organoids; [3]): −0.136 log2 fold change; Z.CTG (ENR+CD organoids; dose 0.08 uM): −0.325; Dose.FC.CTG (ENR+CD organoids; [4]): −0.007 log2 fold change; Z.CTG (ENR+CD organoids; dose 0.40 uM): −0.017; Dose.FC.CTG (ENR+CD organoids; [5]): −0.217 log2 fold change; Z.CTG (ENR+CD organoids; dose 2.00 uM): −0.517; Dose.FC.CTG (ENR+CD organoids; [6]): −0.228 log2 fold change; Z.CTG (ENR+CD organoids; dose 10.00 uM): −0.545; Dose.FC.LYZ.NS [1, 7]: 0.049 log2 fold change; Dose.FC.LYZ.NS [1, 9]: −0.018 log2 fold change; Dose.FC.LYZ.NS [1, 11]: 0.066 log2 fold change; Dose.FC.LYZ.NS [1, 13]: −0.018 log2 fold change; Dose.FC.LYZ.S [2, 3]: 0.062 log2 fold change; Dose.FC.LYZ.S [2, 4]: 0.017 log2 fold change; Dose.FC.LYZ.S [2, 5]: −0.066 log2 fold change; Dose.FC.LYZ.S [2, 6]: −0.054 log2 fold change
CCc1cc(Nc2nccc(-c3c(-c4ccc(OC)c(C(=O)Nc5c(F)cccc5F)c4)nc4ccccn34)n2)c(OC)cc1N1CCC(N2CCN(S(C)(=O)=O)CC2)CC1 [GSK1904529A] |  |  |  |  |  |  |  |  |  |  |  |  |  |  |  |  | 0.890 | 0.977 | −1.557 | −1.419 | Dose.FC.CTG (log2 fold change) (ENR+CD organoids; dose 0.08 uM): 0.202; Z.CTG (standard z score) (ENR+CD organoids; dose 0.08 uM): 0.484; Dose.FC.CTG (log2 fold change) (ENR+CD organoids; dose 0.40 uM): −0.071; Z.CTG (standard z score) (ENR+CD organoids; dose 0.40 uM): −0.170; Dose.FC.CTG (log2 fold change) (ENR+CD organoids; dose 2.00 uM): −0.570; Z.CTG (standard z score) (ENR+CD organoids; dose 2.00 uM): −1.361; Dose.FC.CTG (log2 fold change) (ENR+CD organoids; dose 10.00 uM): −0.691; Z.CTG (standard z score) (ENR+CD organoids; dose 10.00 uM): −1.649; Dose.FC.LYZ.NS (log2 fold change) ([1]; primary screen, dose 0.08 uM): 0.102; Dose.FC.LYZ.NS (log2 fold change) ([1]; primary screen, dose 0.40 uM): 0.112; Dose.FC.LYZ.NS (log2 fold change) ([1]; primary screen, dose 2.00 uM): −0.179; Dose.FC.LYZ.NS (log2 fold change) ([1]; primary screen, dose 10.00 uM): −0.163; Dose.FC.LYZ.S (log2 fold change) ([2]; dose 0.08 uM): 0.133; Dose.FC.LYZ.S (log2 fold change) ([2]; dose 0.40 uM): −0.047; Dose.FC.LYZ.S (log2 fold change) ([2]; dose 2.00 uM): −0.225; Dose.FC.LYZ.S (log2 fold change) ([2]; dose 10.00 uM): −0.276
O=c1cc(-c2ccc(O)cc2)oc2cc(O)cc(O)c12 [Apigenin] | 0.246 log2 fold change | 0.214 log2 fold change | 0.315 log2 fold change | 0.026 log2 fold change | 0.132 log2 fold change | 0.130 log2 fold change | 0.232 log2 fold change | 0.097 log2 fold change | 0.192 log2 fold change | 0.165 log2 fold change | 0.196 log2 fold change | 0.098 log2 fold change |  |  |  |  | 1.147 | 1.131 | 2.021 | 0.847 | 
O=c1ncn2nc(Sc3ccc(F)cc3F)ccc2c1-c1c(Cl)cccc1Cl [VX-745] | 0.186 log2 fold change | 0.146 log2 fold change | 0.018 log2 fold change | 0.022 log2 fold change | 0.092 log2 fold change | 0.004 log2 fold change | 0.021 log2 fold change | −0.006 log2 fold change | 0.154 log2 fold change | 0.054 log2 fold change | 0.058 log2 fold change | 0.038 log2 fold change |  |  |  |  | 0.805 | 0.031 | 0.186 | −0.049 | 
CN1C(=O)C(Cc2c[nH]c3ccccc23)NC1=S (centres unmarked) [Necrostatin-1] |  |  |  |  |  |  |  |  |  |  |  |  | 0.524 | 0.174 | 1.338 | 0.496 |  |  |  |  | Z.CTG (ENR+CD organoids; dose 0.08 uM): 0.244; Z.CTG (ENR+CD organoids; dose 0.40 uM): 0.401; Z.CTG (ENR+CD organoids; dose 2.00 uM): 0.027; Z.CTG (ENR+CD organoids; dose 10.00 uM): 0.328; Dose.FC.CTG (ENR+CD organoids; [15]): 0.102 log2 fold change; Dose.FC.CTG (ENR+CD organoids; [16]): 0.168 log2 fold change; Dose.FC.CTG (ENR+CD organoids; [17]): 0.011 log2 fold change; Dose.FC.CTG (ENR+CD organoids; [18]): 0.137 log2 fold change; Dose.FC.LYZ.NS ([1]; primary screen; dose 0.08 uM; FC vs plate median): 0.060 log2 fold change; Dose.FC.LYZ.NS ([1]; primary screen; dose 0.40 uM; FC vs plate median): 0.020 log2 fold change; Dose.FC.LYZ.NS ([1]; primary screen; dose 2.00 uM; FC vs plate median): 0.154 log2 fold change; Dose.FC.LYZ.NS ([1]; primary screen; dose 10.00 uM; FC vs plate median): 0.057 log2 fold change; Dose.FC.LYZ.S [2, 15]: 0.077 log2 fold change; Dose.FC.LYZ.S [2, 16]: 0.038 log2 fold change; Dose.FC.LYZ.S [2, 17]: 0.092 log2 fold change; Dose.FC.LYZ.S [2, 18]: 0.229 log2 fold change
O=C(NC(Cc1cc(=O)[nH]c2ccccc12)C(=O)O)c1ccc(Cl)cc1 (centres unmarked) [Rebamipide] |  |  |  |  |  |  |  |  |  |  |  |  | 0.832 | −0.793 | −0.780 | −0.773 |  |  |  |  | Dose.FC.CTG (ENR+CD organoids; [3]): −0.256 log2 fold change; Dose.FC.CTG (ENR+CD organoids; [4]): −0.510 log2 fold change; Dose.FC.CTG (ENR+CD organoids; [5]): −0.203 log2 fold change; Dose.FC.CTG (ENR+CD organoids; [6]): −0.281 log2 fold change; Dose.FC.LYZ.NS [1, 7]: 0.096 log2 fold change; Dose.FC.LYZ.NS [1, 9]: −0.091 log2 fold change; Dose.FC.LYZ.NS [1, 11]: −0.090 log2 fold change; Dose.FC.LYZ.NS [1, 13]: −0.089 log2 fold change; Dose.FC.LYZ.S [2, 3]: −0.014 log2 fold change; Dose.FC.LYZ.S [2, 4]: 0.014 log2 fold change; Dose.FC.LYZ.S [2, 5]: −0.106 log2 fold change; Dose.FC.LYZ.S [2, 6]: −0.063 log2 fold change
c1ccc(CC2=NCCN2)cc1 [Tolazoline HCl] | 0.245 log2 fold change | 0.222 log2 fold change | −0.051 log2 fold change | −0.208 log2 fold change | 0.144 log2 fold change | 0.084 log2 fold change | 0.088 log2 fold change | −0.049 log2 fold change | 0.169 log2 fold change | 0.128 log2 fold change | 0.069 log2 fold change | −0.063 log2 fold change |  |  |  |  | 1.255 | 0.728 | 0.765 | −0.424 | 
